Results as given in US20230018765A1, “A 19-NOR C3,3-DISUBSTITUTED C21-N-PYRAZOLYL STEROID AND METHODS OF USE THEREOF” (Sage Therapeutics, Inc., priority 2019, published 2023).

How the values were obtained:
[1] = tested on: adult patients diagnosed with MDD (MADRS total score ≥32 and a HAM-D total score ≥22); assay: double-blind, randomized placebo-controlled Phase 3 study of Compound 1 in Major Depressive Disorder (efficacy by HAM-D total score, safety and tolerability); format: in vivo, human; details: for overall incidence of patients who experienced AEs: 14-day treatment period and 28-day follow up, placebo 48.9%; for AE incidence: Fatigue: placebo 2.6%; for AE incidence: Sedation / subjects having treatment emergent AEs leading to study drug discontinuation: placebo 3.2%; for AE incidence: Dizziness: placebo 3.7%; for AE incidence: Somnolence: placebo 4.2%; for AE incidence: Nausea: placebo 4.7%; for AE incidence: Diarrhea: placebo 5.3%; for AE incidence: Headache: treatment period and 28-day follow up, placebo 7.4%
Procedure: Compound 1 was evaluated in a double-blind, randomized placebo-controlled Phase 3 study in Major Depressive Disorder (MDD). The evaluated the efficacy, safety and pharmacokinetics of Compound 1 in adult patients diagnosed with MDD (MADRS total score ≥32 and a HAM-D total score ≥22).
Compound 1 was administered to a patient, either in 20 mg daily doses once a day for 14 days or 30 mg once a day for 14 days.

[2] = tested on: subjects with MDD; assay: HAM-D course after a Compound 1 treatment cycle (response/remission at Day 15, HAM-D at Day 42); format: in vivo, human
[3] = tested on: GABAA receptors; assay: modulation of GABAA receptors; details: synaptic and extrasynaptic GABAA receptors
[4] = tested on: subjects with MDD; assay: Phase 2 study in subjects with MDD / previous clinical trials of Compound 1
[5] = among subjects achieving remission or response at Day 15, Day 42

C[C@@]1(O)CC[C@H]2[C@H](CC[C@@H]3[C@@H]2CC[C@]2(C)[C@@H](C(=O)Cn4cc(C#N)cn4)CC[C@@H]32)C1 [Compound 1]
separation from placebo (HAM-D) of the 20 mg dose ([1]; 20 mg once a day for 14 days): did not separate from placebo | tolerability in the trial ([1]; 20 mg or 30 mg once a day for 14 days): generally well tolerated | overall incidence of patients who experienced AEs ([1]; 20 mg): 50.0% | patients who reported SAEs during follow-up ([1]; 20 mg, SAEs related to cocaine ingestion, Day 39): one | AE incidence: Fatigue ([1]; 20 mg): 1.6% | AE incidence: Sedation ([1]; 20 mg): 5.9% | subjects having treatment emergent AEs leading to study drug discontinuation ([1]; 20 mg): 1.6% | AE incidence: Dizziness ([1]; 20 mg): 7.4% | AE incidence: Somnolence ([1]; 20 mg): 5.9% | AE incidence: Nausea ([1]; 20 mg): 5.3% | AE incidence: Diarrhea ([1]; 20 mg): 5.9% | AE incidence: Headache ([1]; 20 mg): 11.2% | onset of effect (HAM-D vs placebo) ([1]; 30 mg (n=166)): beginning at Day 3 | LS Mean Difference from placebo, HAM-D total score, Day 3 ([1]; 30 mg (n=166) vs placebo (n=157), Day 3, p=0.016): −1.6 | AE incidence: Diarrhea ([1]; 30 mg (printed 30 rug)): 6.3% | reduction in depressive symptoms in the HAM-D total score at Day 15 (primary endpoint) ([1]; 30 mg once a day for 14 days, Day 15, placebo 11.2): 12.6 | LS Mean Difference, HAM-D total score at Day 15, patients with measurable drug concentrations and HAM-D≥24 ([1]; 30 mg vs placebo, post-hoc, p=0.017): −2.6 | LS Mean Difference, HAM-D total score at Day 15, patients with HAM-D≥24 ([1]; 30 mg vs placebo, post-hoc, p=0.032): −2.3 | LS Mean Difference, HAM-D total score at Day 15, patients with measurable drug concentrations ([1]; 30 mg vs placebo, post-hoc, p=0.048): −1.8 | overall incidence of patients who experienced AEs ([1]; 30 mg): 54.2% | LS Mean Difference from placebo, HAM-D total score, Day 8 ([1]; 30 mg, Day 8, p=0.008): −2.1 | LS Mean Difference from placebo, HAM-D total score, Day 12 ([1]; 30 mg, Day 12, p=0.018): −2.1 | LS Mean Difference from placebo, HAM-D total score, Day 15 ([1]; 30 mg, Day 15, p=0.115): −1.4 | LS Mean Difference from placebo, HAM-D total score, Day 42 ([1]; 30 mg, Day 42, p=0.807): −0.5 | Change from baseline in HAM-D total score at Day 42 ([1]; 30 mg, Day 42, placebo −11.7): −11.9 | AE incidence: Fatigue ([1]; 30 mg): 6.8% | AE incidence: Sedation ([1]; 30 mg): 4.7% | subjects having treatment emergent AEs leading to study drug discontinuation ([1]; 30 mg): 2.1% | AE incidence: Dizziness ([1]; 30 mg): 5.7% | AE incidence: Somnolence ([1]; 30 mg): 6.8% | AE incidence: Nausea ([1]; 30 mg): 3.6% | Change from baseline in HAM-D total score at Day 15, patients with HAM-D≥24 ([1]; 30 mg, post-hoc, n=124, placebo −11.4): −13.7 | Change from baseline in HAM-D total score at Day 15, patients with measurable drug concentrations ([1]; 30 mg, post-hoc, n=151, placebo −11.2): −13.0 | Change from baseline in HAM-D total score at Day 15, patients with measurable drug concentrations and HAM-D≥24 ([1]; 30 mg, post-hoc, placebo −11.4): −14.0 | patients who experienced serious adverse events (SAEs) during treatment ([1]; 30 mg, suicide attempt Day 5, bile duct stone after Day 2): Two | patients who reported SAEs during follow-up ([1]; 30 mg, syncope and associated injuries, Day 28): one | AE incidence: Headache ([1]; 30 mg): 6.3% | durability of improvements in depressive symptoms, double-blind portion ([1]; all treatment groups, through Day 42): sustained in all treatment groups through Day 42 | AEs of loss of consciousness ([1]; any group): no ABs of loss of consciousness | suicidal ideation or suicidal behavior by Columbia Suicide Severity Rating Scale (C-SSRS) ([1]; compared to baseline): no signal fir increased suicidal ideation or suicidal behavior | durability of improvement in depressive symptoms, long-term follow-up ([1]; patients who completed long-term follow-up up to 6 months, preliminary data): maintenance of improvement in depressive symptoms | subjects achieving remission or response at Day 15 ([2]; Day 15): 78.6% | subjects with HAM-D≥22 at Day 42 [2, 5]: 6.1% | subjects with a HAM-D score of 16 to 21 at Day 42 [2, 5]: 18.2% | mode of action at GABAA receptors [3]: positive allosteric modulator of GABAA receptors | efficacy in a Phase 2 study in subjects with MDD ([4]; 30 mg per day): efficacious | tolerability in a Phase 2 study in subjects with MDD ([4]; 30 mg per day): well-tolerated | adverse effect in previous clinical trials, morning administration ([4]; administered in the morning): sedation/somnolence observed | tolerability in previous clinical trials, evening administration ([4]; given in the evening): improved tolerability
